This is an account of results in US20250051301A1, “MUTANT IDH1 AND IDH2 INHIBITOR AND APPLICATION THEREOF” (Betta Pharmaceuticals Co., Ltd, priority 2022, published 2025).

The structures appear in SMILES notation. Values after ≈ are worked out from the molar mass of the structure shown.

The nature of series [1]: Pharmacokinetic detection in dogs. The format is in vivo. As to conditions: beagle dogs. The protocol: Adult beagle dogs (6-12 months of age) received a single dose of the compounds to be tested via intravenous administration (IV) or oral gavage administration (PO), respectively. In the IV single dose, 5% DMSO+5% Solutol+90% physiological saline was used as the excipient; the intravenous administration was carried out at a dose of 1 mg/kg (2 females and 2 males); and the venous blood collection time was 5 min, 15 min, 0.5 h, 1 h, 2 h, 4 h, 6 h, 8 h, 10 h and 24 h. In the PO single dose, 5% DMSO+5% Solutol+90% purified water was used as the excipient; the oral gavage administration was carried out at a dose of 5 mg/kg (2 females and 2 males); and the blood collection time was 15 min, 0.5 h, 1 h, 2 h, 4 h, 6 h, 8 h, 10 h and 24 h. Blood samples were collected in tubes containing EDTA anticoagulants and centrifuged at 4000 rpm at 4° C. for 10 min, and the supernatants were transferred to centrifuge tubes and stored at −20° C. For the detection, 30 μL of the plasma supernatant sample was taken, and 200 μL of an internal standard solution was added. The mixture was centrifuged at 3000 rpm for 10 minutes. Then, 100 μL of the supernatant solution was diluted with water at a 1:1 ratio and then injected with an injection volume of 5 μL. The concentration of the compounds to be tested in the plasma sample was analyzed by liquid chromatography-tandem mass spectrometry (LC-MS/MS). Plasma concentration-time data for individual animals were analyzed using Sciex Analyst software. The non-compartment model was introduced into the concentration analysis, and pharmacokinetic parameters (Cl_obs, Cmax and AUClast) of the compounds to be tested were calculated using WinNonlin (version 4.1; pHarsight) software.

Another series addresses IDH1^R132H (Homo sapiens, UniProt O75874, R132H). The series is described as follows: Enzyme activity inhibition assay (fluorescence-based), IDH1 R132H. The note with it: numeric values. The format is biochemical. Here is the method:
The inhibitory ability of the compounds on the enzyme activities of IDH1^R132H and IDH2^R140Qwas detected and expressed as the half inhibitory concentration (IC50) value. AG-881 was used as a positive control compound. In this experiment, compounds were screened on enzymes IDH1^R132H and IDH2^R140Q using a fluorescence-based method (initial concentration: 10000 nM, 3-fold dilution, 10 concentrations, and single-well detection). • (1) Preparation of 1×assay buffer. • (2) Preparation of compound concentration gradient: the compounds to be tested were assayed at an initial concentration of 10000 nM, with 3-fold dilution and 10 concentrations, and diluted into 200-fold the final concentration in 100% DMSO solution in a 384-well plate. • (3) 250 nL of DMSO and 250 nL of diluted compounds were transferred to a reaction plate with Echo 550. • (4) IDH2^R140Q enzyme detection: 25 μL of an IDH2^R140Q enzyme solution was added, and the mixture was incubated for 60 minutes; then 25 μL of a substrate solution was added, and the mixture was incubated for 150 minutes; then 25 μL of a detection buffer was added, and the mixture was shaken for 1 minute and incubated for 60 minutes; and finally, Synergy 2, Ex544/Em590 cutoff 590 was used for reading. • (5) IDH1^R132H enzyme detection: 40 μL of a mixture solution of an IDH1^R132H enzyme at the 1.25-fold final concentration and NADPH was added, and the mixture was incubated for 60 minutes; then 10 μL of a substrate solution at the 5-fold final concentration was added, and the mixture was incubated for 90 minutes; then 25 μL of a detection buffer at the 3-fold final concentration was added, and the mixture was shaken for 1 minute. and finally, Synergy 2, Ex544/Em590 cutoff 590 was used for reading. • (8) Inhibition rate calculation, formula: % Inhibition=(RFU_sample−RFU_min)/(RFU_max−RFU_min)*100%, wherein RFU-sample represents the fluorescence intensity of a sample; RFU-min represents the average value of negative control wells and represents the fluorescence intensity with an enzyme; and RFU-max represents the average value of positive control wells and represents the fluorescence intensity without an enzyme. The curve fitting was performed using Graphpad Prism software to obtain IC50 values, and the test results were as shown in table 2.

The nature of series [2]: Kinetic solubility experiment. As to conditions: buffer, kinetic from dmso stock. The format is physicochemical. Here is the method:
1. Preparation of Solutions/Buffers at Different pH Values
• Solution A: 17.42 g of K2HPO4 was weighed and dissolved in 1 L of ultrapure water. • Solution B: 13.65 g of KH2PO4 was weighed and dissolved in 1 L of ultrapure water.
A certain mass of substance to be tested was accurately weighed and dissolved in a certain volume of DMSO to obtain a 20 mM or 10 mM stock solution.
An acetonitrile stopping solution containing 1 ng/mL of labetalol and glibenclamide was prepared.
3. Incubation System (n=3)
The above-mentioned solutions were placed in a 96-well plate, respectively and shaken in a thermostatic oscillator for 2 hours (37° C., 150 rpm).
4. Control solution: 200 μM control solution of the substance to be tested was prepared in methanol. 5. Sample treatment
At a predetermined time, the 96-well plate was placed in a centrifuge and centrifuged at 4100 rpm for 15 minutes. A certain volume of the supernatant and a certain volume of control solution were respectively taken into 19 times volume of water containing 70% acetonitrile that has been previously added. The mixture was uniformly mixed, diluted 20 times with an internal standard stop solution and shaken in a thermostatic oscillator at 700 rpm at room temperature for 5 min. Further dilution may be necessary depending on the sensitivity of the compound, and sample analysis was performed by LC-MS/MS.
The ratio of compound peak area to internal standard peak area was used for calculation. According to the concentration relationship between the compound in the buffer and the control solution, the calculated concentration was the kinetic solubility, and the calculation formula was as follows:
Solubility(μg/mL)=mass spectral peak area of the compound to be tested in buffers at different pHs×200μM×molecular weight of the compound to be tested(MW)/mass spectral peak area of the compound to be tested in methanol/1000;

Where [3] appears, read: both sexes, dog, plasma, PO, 5 mg/kg.

For orientation: AUC(0-t) means exposure summed from dosing to a finite time, without extrapolation to infinity. The Cmax is the maximum level reached in the sampled fluid or tissue. In general, IC50 refers to the concentration that inhibits the measured activity by half. As a reminder, the solubility is the concentration that dissolves in the medium under given conditions. Read a high solubility as much dissolved substance.

IDH1^R132H, sequence (O75874 whole entry R132H): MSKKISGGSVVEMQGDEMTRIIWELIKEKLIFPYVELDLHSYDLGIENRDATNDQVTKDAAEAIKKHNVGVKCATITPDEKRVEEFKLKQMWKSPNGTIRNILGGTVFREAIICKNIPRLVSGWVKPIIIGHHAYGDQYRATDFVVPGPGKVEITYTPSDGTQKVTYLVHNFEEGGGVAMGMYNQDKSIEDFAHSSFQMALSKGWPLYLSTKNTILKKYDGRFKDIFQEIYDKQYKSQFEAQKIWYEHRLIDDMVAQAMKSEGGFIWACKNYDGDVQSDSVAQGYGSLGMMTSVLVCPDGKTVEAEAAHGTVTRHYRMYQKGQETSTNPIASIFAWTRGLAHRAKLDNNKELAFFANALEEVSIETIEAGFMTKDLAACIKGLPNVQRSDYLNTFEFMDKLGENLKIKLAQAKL

For `C[C@@H](Nc1nc(N[C@H](C)C(F)(F)F)nc(-c2cc(F)c(N)c(Cl)n2)n1)C(F)(F)F` [Example 5, 6-(5-amino-6-chloro-4-fluoropyridin-2-yl)-N^2,N^4-bis((R)-1,1,1-trifluoropropyl-2-yl)-1,3,5-triazine-2,4-diamine], the Cl_obs in series [1] (IV, 1 mg/kg) is 5.1 mL/min/kg. In addition, the AUC(0-t) in series [1] (both sexes, dog, plasma, IV, 1 mg/kg) came out at 2630 ng·h/mL; in series [1] (setting [3]), 11700 ng·h/mL. Also, the Cmax in series [1] (setting [3]) was determined as 1160 ng/mL. For the same compound, the IC50 on IDH1^R132H came out at 8 nM. For the same compound, the solubility at 2 h in series [2] (aqueous buffer, pH = 3.0, 37° C.) was 53.3 µg/mL (≈ 119 µM); in series [2] (aqueous buffer, pH = 5.0, 37° C.), 59.5 µg/mL (≈ 133 µM); in series [2] (aqueous buffer, pH = 7.4, 37° C.) it was 48.1 µg/mL (≈ 107 µM); in series [2] (simulated gastric fluid, pH = 1.0, 37° C.) it was 86.6 µg/mL (≈ 193 µM).
